# Values joined by “and” are separate entries in the source; they are usually repeats but may differ in a detail not shown here. Identical values can stand only once. Active and inactive are the calls of the source.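 The calls were made as follows: active = fitted curve rises past activity 40 at a concentration no higher than the top valid tested dose; inconclusive = flat curve at 30 to 70 percent, or poor fit; inactive = the rest, including activity in the opposite direction.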
# Test system: C. neoformans lysis, adenylate kinase release luminescence, 4 h
# Test: inducers of C. neoformans cell lysis, dose response, AK release luminescence, dry powder, set 3 (AID 743302)
# Details: not given
row,Structure (SMILES),AC40
1,Cc1ccc(OCCn2cnc3ccccc32)c(C(C)C)c1,3820 nM
2,Cc1ccc(OCCn2c(SCCO)nc3ccccc32)c(C(C)C)c1,> 15000 nM (inactive)
3,Cc1ccc(C(C)C)c(OCCn2c(=S)[nH]c3cccc(C)c32)c1,8260 nM
4,Cc1ccc2c(c1)[nH]c(=S)n2CCOc1ccccc1,4240 nM and 940 nM
5,CC(C)c1ccccc1OCCn1c(=S)[nH]c2ccccc21,1110 nM
6,Cc1ccc(C(C)C)c(OCCn2c(=S)[nH]c3ccc(F)cc32)c1,1060 nM
7,Fc1cccc2c1[nH]c(=S)n2CCOc1ccccc1,3180 nM and 2700 nM and 1570 nM
8,Cc1ccc(C(C)C)c(OCCn2c(=S)[nH]c3ccc(Cl)cc32)c1,> 15000 nM (inactive)
9,Cc1ccccc1OCCn1c(=S)[nH]c2ccccc21,1870 nM
10,S=c1[nH]c2cc(Cl)ccc2n1CCOc1ccccc1,358 nM
11,Fc1ccccc1OCCn1c(=S)[nH]c2ccccc21,8740 nM
12,Cc1ccc(OCCn2cnc3ccccc32)cc1,> 15000 nM (inactive)
13,Cc1ccc(OCCn2c(=S)[nH]c3ccccc32)c(C(C)C)c1,9540 nM and 1410 nM
14,Fc1ccc2c(c1)[nH]c(=S)n2CCOc1ccccc1,3060 nM and 1950 nM
15,Cc1ccc(C(C)C)c(OCCn2c(=S)[nH]c3c(Cl)cccc32)c1,> 15000 nM (inactive)
16,Cc1cccc(OCCn2c(=S)[nH]c3c(F)cccc32)c1,726 nM and 1300 nM
17,CC(C)c1ccc(OCCn2c(=S)[nH]c3ccccc32)cc1,172 nM
18,Cc1ccc(C(C)C)c(OCCn2c(=S)[nH]c3ccccc32)c1,3570 nM and 2720 nM
19,CC(C)(C)c1ccccc1OCCn1c(=S)[nH]c2ccccc21,3230 nM
20,c1ccc(OCCn2cnc3ccccc32)cc1,> 15000 nM (inactive)
21,CC(C)(C)c1ccc(OCCn2cnc3ccccc32)cc1,1950 nM
22,Cc1ccc(OCCn2c(=S)[nH]c3ccccc32)cc1,1140 nM
23,Cc1ccc(C(C)C)c(OCCn2c(CO)nc3ccccc32)c1,14000 nM
24,Cc1ccc(C(C)C)c(OCCn2c(=S)[nH]c3cccc(F)c32)c1,> 15000 nM (inactive)

row,Structure (SMILES),AC40
1,Cc1ccc(OCCn2c(C)nc3ccccc32)cc1,> 15000 nM (inactive)
2,Cc1cccc2[nH]c(=S)n(CCOc3ccccc3)c12,211 nM
3,S=c1[nH]c2cccc(Cl)c2n1CCOc1ccccc1,3600 nM and 619 nM
4,Fc1ccc2[nH]c(=S)n(CCOc3ccccc3)c2c1,> 15000 nM (inactive)
5,O=c1[nH]c2ccccc2n1CCOc1ccccc1,> 15000 nM (inactive)
6,COc1cccc(OCCn2c(=S)[nH]c3ccccc32)c1,> 15000 nM (inactive)
7,Cc1cccc(OCCn2c(=S)[nH]c3ccccc32)c1C,> 15000 nM (inactive)
8,COc1ccc(OCCn2c(=S)[nH]c3ccccc32)cc1,13700 nM
9,COCc1nc2ccccc2n1CCOc1ccc(C(C)(C)C)cc1,6790 nM
10,Fc1cccc(OCCn2c(=S)[nH]c3ccccc32)c1,3270 nM
11,CCOc1ccc(OCCn2c(=S)[nH]c3ccccc32)cc1,1380 nM
12,CC(C)c1ccccc1NCCn1c(=S)[nH]c2ccccc21,5860 nM
13,Cc1ccc(C(C)C)c(OCCn2c(=S)[nH]c3c(C)cccc32)c1,1820 nM
14,Cc1cccc(OCCn2c(=S)[nH]c3ccccc32)c1,910 nM
15,Cc1ccc(C(C)C)c(OCCn2c(=S)[nH]c3cc(F)ccc32)c1,5510 nM
16,Cc1ccc(C)c(OCCn2c(=S)[nH]c3ccccc32)c1,1820 nM
17,Cc1ccc(OCCn2c(=S)[nH]c3ccccc32)c(C)c1,> 15000 nM (inactive)
18,Cc1cccc(OCCn2c(=S)[nH]c3cc(C(F)(F)F)ccc32)c1,> 15000 nM (inactive)
19,Cc1ccc(C(C)C)c(OCCn2c(=S)[nH]c3cccc(Cl)c32)c1,> 15000 nM (inactive)
20,S=c1[nH]c2ccccc2n1CCOc1ccc(Cl)cc1,1190 nM
21,Cc1cccc(OCCn2c(=S)[nH]c3ccc(C(F)(F)F)cc32)c1,14300 nM
22,S=c1[nH]c2ccccc2n1CCOc1ccccc1Cl,902 nM
23,Cc1cccc(OCCn2c(=S)[nH]c3cc(F)ccc32)c1,581 nM and 1820 nM

# Test system: not listed separately
# Test: as above
# Details: C. neoformans lysis, adenylate kinase release luminescence, 4 h; at 15 µM (top of the series)
row,Structure (SMILES),cell lysis activity
1,CSc1nc2ccccc2n1CCOc1cc(C)ccc1C(C)C,3.47% (inactive)
2,S=c1[nH]c2ccccc2n1CCOc1ccccc1,33.9% (inactive)
3,CC(C)(C)c1ccc(OCCn2c(=S)[nH]c3ccccc32)cc1,4.17% (inactive)
4,Cc1ccc(C(C)C)c(OCCn2c(=S)[nH]c3c(F)cccc32)c1,-28.6% (inactive)
5,Fc1ccc(OCCn2c(=S)[nH]c3ccccc32)cc1,-54.7% (inactive)
6,COc1ccccc1OCCn1c(=S)[nH]c2ccccc21,-4.68% (inactive)

# Reference: PubChem BioAssay AID743302 (Broad Institute, 2014)
